# Results as given in paper PMC10795796 (Biochemistry, 2023).
# Biological target: T1, TIR domain of TIR-1 (Caenorhabditis elegans, UniProt Q86DA5)
# T1 sequence (Q86DA5 707-930): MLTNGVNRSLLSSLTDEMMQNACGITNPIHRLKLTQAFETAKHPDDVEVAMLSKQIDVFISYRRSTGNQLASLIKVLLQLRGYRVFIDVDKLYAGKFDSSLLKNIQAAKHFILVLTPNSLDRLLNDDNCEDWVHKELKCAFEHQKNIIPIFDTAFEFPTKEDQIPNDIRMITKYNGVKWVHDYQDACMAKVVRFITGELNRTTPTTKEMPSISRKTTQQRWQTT
# Assay: direct fluorescent base exchange assay
# Type: biochemical
# Conditions: […] °C
"Km ([…] PC6 (saturating), […] PEG […] Tris pH […] NaCl)","Km ([…] NAD+ (saturating), […] PEG […] Tris pH […] NaCl)",SMILES
630 µM,,NC(=O)c1ccc[n+]([C@@H]2O[C@H](COP(=O)(O)OP(=O)(O)OC[C@H]3O[C@@H](n4cnc5c(N)ncnc54)[C@H](O)[C@@H]3O)[C@@H](O)[C@H]2O)c1 [NAD^+]
,165 µM,CCOc1ccc(/C=C/c2ccncc2)cc1 [PC6]
